One data set relates to ICR mice. Briefly: EPO protein expression in mice after intravenous EPO mRNA lipid nanoparticles. The following applies: mRNA 0.1 mg/kg, plasma 6 hours after administration, neutral lipid DSPC, Lipid/Nucleic acid (wt/wt) 20, Comparative Example 1 is 1. It counts as in vivo. The method in brief: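 ICR mice given EPO mRNA lipid nanoparticles (ionized lipid:DSPC or DOPE:cholesterol:DMG-PEG2000 50:10:38.5:1.5 mol %) i.v. at 0.1 mg/kg mRNA. Plasma human EPO measured by ELISA 6 h post-dose, expressed relative to a comparator formulation set to 1.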

Data set [1] is described as follows: Particle size of EPO mRNA-encapsulating lipid nanoparticles. It counts as physicochemical. The following applies: LNP with neutral lipid DSPC; mixed solution PBS; Lipid/Nucleic acid (wt/wt) 20.
The test system of a further data set is EPO mRNA. Briefly: mRNA encapsulation rate of mRNA lipid nanoparticles. It counts as physicochemical. The following applies: LNP with neutral lipid DSPC; mixed solution PBS; Lipid/Nucleic acid (wt/wt) 20. The gist of the method: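 Lipid nanoparticles made by microfluidic mixing of ionizable lipid:neutral lipid (DSPC or DOPE):cholesterol:DMG-PEG2000 (50:10:38.5:1.5 mol %) with mRNA in pH 4.0 citrate, then dialysed against Tris pH 7.4 with 8% sucrose. Total mRNA was measured by A260−A330 after methanol disruption, outer-phase mRNA by RiboGreen standard addition; encapsulation rate derived from both.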

SMILES strings stand for the structures.

For `CCCCCCCN(CCCCCC(=O)OCC(CCCCC)CCCCC)C(=O)OCCN(CCCN(CC)CC)CCOC(=O)N(CCCCCCC)CCCCCC(=O)OCC(CCCCC)CCCCC` [Example 48, Bis(2-pentylheptyl) 12-(3-(diethylamino)propyl)-7,17-diheptyl-8,16-dioxo-9,15-dioxa-7,12,17-triazatricosanedioate], the “Relative amount of EPO protein (to Comparative Example 1)” value (“Relative amount of EPO protein” for short) with ICR mice is reported as 2.26. For the same compound, the “Particle size (nm)” value in data set [1] is given as 90 nm. In the data set with EPO mRNA, the “Nucleic acid encapsulation rate (%)” value came out at 96%.
On to `CCCCCC(CCCCC)COC(=O)CCCCCN(CCCCC)C(=O)OCCN(CCCN(CC)CC)CCOC(=O)N(CCCCC)CCCCCC(=O)OCC(CCCCC)CCCCC` [Example 49, bis(2-pentylheptyl) 12-(3-(diethylamino)propyl)-8,16-dioxo-7,17-dipentyl-9,15-dioxa-7,12,17-triazatricosanedioate], for which the “Relative amount of EPO protein” value with ICR mice came out at 1.12. Besides, the “Particle size (nm)” value in data set [1] is on record as 126 nm. Moreover, the “Nucleic acid encapsulation rate (%)” value in the data set with EPO mRNA came out at 94%.
Consider `CCCCCCCCN(CCCCCC(=O)OCC(CCCCC)CCCCC)C(=O)OCCN(CCOC(=O)N(CCCCCCCC)CCCCCC(=O)OCC(CCCCC)CCCCC)CCN(CC)CC` [Example 50, bis(2-pentylheptyl) 12-(2-(diethylamino)ethyl)-7,17-dioctyl-8,16-dioxo-9,15-dioxa-7,12,17-triazatricosanedioate], for which, in the data set on ICR mice, the “Relative amount of EPO protein” value turned out to be 1.55. The “Particle size (nm)” value in data set [1] is reported as 82 nm. Besides, the “Nucleic acid encapsulation rate (%)” value with EPO mRNA is on record as 96%.
Taken in the same sequence, the figures for `CCCCCCCCN(CCCCCC(=O)OCC(CCCCC)CCCCC)C(=O)OCCN(CCCN(CC)CC)CCOC(=O)N(CCCCCCCC)CCCCCC(=O)OCC(CCCCC)CCCCC` [Example 51, Bis(2-pentylheptyl) 12-(3-(diethylamino)propyl)-7,17-dioctyl-8,16-dioxo-9,15-dioxa-7,12,17-triazatricosanedioate] were 2.88, 93 nm and 94%.

The record behind these values is patent US20250345459A1, “COMPOUND OR SALT THEREOF, LIPID COMPOSITION, PHARMACEUTICAL COMPOSITION, AND DELIVERY CARRIER” (FUJIFILM Corporation, priority 2023, published 2025).
